1 substance from US10835506B2, “Treatment and prevention of muscle loss using L-ornithine in combination with at least one of phenylacetate and phenylbutyrate” (OCERA THERAPEUTICS, INC., priority 2015, dated 2020) can be followed below.

The assay deals with Fisher 344×Brown Norway (FBN) rat. As to the kind of experiment: Treatment of sarcopenia (age-related muscle loss) in FBN hybrid rats. Conditions: middle age and/or old FBN hybrid rats; OP administered e.g. orally. The assay is classed as in vivo. On the procedure:
The Fisher 344×Brown Norway (FBN) rat model has been recommended by the National Institute on Aging (NIA) for age-related research. […] Significant muscle mass loss, a reduction in muscle CSA, and muscle fiber loss are expected in, for example, the quadriceps muscles of the aged rat.
OP is administered, for example orally, to young, middle age, and old FBN hybrid rats.

With L-ornithine phenylacetate [OP], the muscle mass loss entry is on record as “effective in reducing muscle mass loss”.
